The structures appear in SMILES notation. Where two headings read alike, the source gives them in different places.

The clearance is the rate of elimination divided by the concentration. The low end stands for inefficient removal, the high end for efficient removal.

A short description of one data set: clinical. The note with it: in vivo. An excerpt:
The dataset used in this study was collected from a cohort of 218 patients undergoing Dalbavancin treatment and who underwent therapeutic drug monitoring (TDM) of Dalbavancin at the IRCCS, Azienda Ospedaliero Universitaria di Bologna between April 2021 and December 2024. Dalbavancin is a long-acting antibiotic used for the treatment of skin and soft tissue infections and as a second-line agent in patients with staphylococcal infections, such as bone and joint infections, vascular prosthetic joint infections and endocarditis. At our center, Dalbavancin plasma exposure is optimized by means of TDM, which is the medical practice of measuring drug concentration in plasma in order to guide drug dosing for attaining a pre-defined target of efficacy. Dalbavancin is a semisynthetic lipoglycopeptide derived from the teicoplanin-like antibiotic A-40926, which is an agent naturally produced by the actinomycete Nonomuria spp. […] The long lipophilic side chain in the Dalbavancin molecule serves a dual purpose by both extending the half-life, as well as anchoring the compound to the membrane, which enhances its antimicrobial activity.
The data acquisition process involved recording patient covariates, drug administration details and serial blood sampling for pharmacokinetic analysis. Dalbavancin doses ranged from 350mg to 1500mg , with a total of 703 administrations recorded. Blood samples were obtained at various time points following drug administration, resulting in 669 concentration measurements. Standardized laboratory procedures were followed for quantifying Dalbavancin levels in plasma, ensuring accuracy and consistency across all samples.
To ensure robust model evaluation, we employed a cross-validation approach. Given the dataset size and the need for a balance between the training and validation data, we opted for a 6-fold cross-validation framework. This choice provides a good trade-off between statistical reliability and computational efficiency, allowing each model to be trained and validated on multiple subsets of the data while maintaining a sufficient amount of training data per fold.
Since the compartment models are systems of differential equations, the replacement of these equations with an NN is direct:(2a) dCc/dt=−CcCl/V1−CcQ/V1+CpQ/V2dCp/dt=CcQ/V1−CpQ/V2 (2b) dh(t)/dt=fnn(h(t),t;θ) The differential equation systems (2a) represent a simple two-compartment model with the four parameters that need to be fitted: V1 and V2 are the volumes of the central and peripheral compartments, Cl the clearance, Q the intercompartmental clearance and Cc and Cp the concentrations of the two compartments.
In addition to the main FNN, the model includes an additional parameter, the distribution volume ( VNODE ), which is learned through gradient descent with the whole FNN. […]

The conditions of data set [1]: in vivo; cited from earlier work.

Take `CN[C@H]1C(=O)N[C@@H]2Cc3ccc(cc3)Oc3cc4cc(c3O[C@@H]3O[C@H](C(=O)O)[C@@H](O)[C@H](O)[C@H]3NC(=O)CCCCCCCCC(C)C)Oc3ccc(cc3Cl)[C@@H](O)[C@@H]3NC(=O)[C@H](NC(=O)[C@@H]4NC(=O)[C@@H](NC2=O)c2cc(cc(O)c2Cl)Oc2cc1ccc2O)c1ccc(O)c(c1)-c1c(O[C@H]2O[C@H](CO)[C@@H](O)[C@H](O)[C@@H]2O)cc(O)cc1[C@@H](C(=O)NCCCN(C)C)NC3=O` [Dalbavancin]: the clearance in the data set “clinical” (human, Cl (clearance), SD) was 0.9 mL/min. Further, the “Cl (clearance)” value in “clinical” (human, SD) stood at 0.0367 ± 0.0006 L/h. Further, in the data set “clinical”, the “VNODE (distribution volume)” value stood at 5.7 ± 0.1 L. Also, the “VNODE,cov (distribution volume)” value in the data set “clinical” (SD) was 5.2 ± 0.8 L. In data set [1], the “Cl (clearance)” value was 0.031 ± 0.004 L/h, the “Q (intercompartmental clearance)” value was 0.038 ± 0.013 L/h, the “V1 (volume of central compartment)” value was 5.9 ± 0.3 L and the “V2 (volume of peripheral compartment)” value is 9.6 ± 1.4 L.

(Values after paper PMC12192077, “Leveraging Neural ODEs for Population Pharmacokinetics of Dalbavancin in Sparse Clinical Data” (Entropy, 2025).)
